Data taken from patent publication US20110071173A1, “IMIDAZOQUINAZOLINE DERIVATIVES AS ANAGRELIDE ANALOGUES FOR THE TREATMENT OF MYELOPROLIFIC DISEASES AND THROMBOTIC DISEASES” (Shire LLC, priority 2008, published 2011).

What was measured:
[1] = cited from earlier work
[2] = tested on: TPO-induced megakaryocytopoiesis; settings: cited from earlier work
[3] = tested on: human phosphodiesterase III (PDE III); experiment: PDE III inhibition; type: biochemical; settings: versus anagrelide
[4] = pharmacokinetics in vivo (half-life, exposure, first pass); parameters: species or system human; settings: after anagrelide treatment
[5] = target: human phosphodiesterase III (PDE III); settings: cited from earlier work
[6] = tested on: erythroid or myelomonocytic differentiation; settings: stimulated by erythropoietin or granulocyte-macrophage colony-stimulating factor; cited from earlier work

Structure (SMILES)	half-life ([1]; typical)	potency in inhibition of megakaryocytopoiesis relative to parent drug ([2]; versus anagrelide)	potency as PDE III inhibitor relative to anagrelide [3]	exposure in vivo relative to parent drug [4]	IC50 [5]	first pass effect ([1]; in vivo)	IC50 ([2]; in vitro, human megakaryocytopoiesis, read-out: estimated IC50, inhibition of TPO-induced megakaryocytopoiesis)	effect on erythroid or myelomonocytic differentiation [6]
O=C1NC2=Nc3ccc(Cl)c(Cl)c3CN2C1O (stereo not drawn) [3-hydroxyanagrelide]	2.5 h	no more potent than the parent drug	over 40 fold	2-3 fold				
O=C1CN2Cc3c(ccc(Cl)c3Cl)N=C2N1 [Anagrelide, 6,7-dichloro-1,5-dihydroimidazo[2,1-b]-quinazolin-2(3H)-one]					~29 nM	> 50%	~26 nM	does not affect
Cc1[nH]c(=O)c(C#N)cc1-c1ccncc1 [milrinone]					170 to 350 nM			
